“And” between values parts separate entries of the source, which are not always exact repeats. Equal entries are not always repeated.
How the values were obtained:
[1] = system: NCI-H358 and MIA PaCa-2 cells expressing RTK constructs; assay: pERK (MSD) in NCI-H358 and MIA PaCa-2 cells expressing exogenous RTK or RTK fusion constructs; assay type: cell-based, human
[2] = Cell-to-medium concentration ratio of RMC-7977 (LC–MS/MS bioanalysis of cells and supernatant); assay type: in vitro ADME, human
Experimental: Cells were pelleted by centrifugation, and 1 ml of supernatant was reserved and frozen at −80 °C. Cell pellets were washed twice in cold PBS, and pre-weighed tubes containing the cell pellets were weighed prior to snap freezing in a slurry of dry ice and ethanol. […] Cell pellet samples were resuspended in cell medium (diluted as needed), then treated as supernatant. An aliquot of supernatant or resuspended cells (50 µL) was quenched with a 3× volume of acetonitrile containing the internal standard terfenadine (2.5 ng ml^−1). […] The lower limit of quantification was 0.25 ng ml^−1, and the calibration range was 0.25 to 400 ng ml^−1.

[3] = system: KRAS(G12C)-mutated PDX model from a NSCLC patient relapsed on sotorasib; assay: Sotorasib resistance xenograft study (KRAS^G12C NSCLC PDX); assay type: in vivo, mouse; settings: 10 mg kg^−1 daily oral, day 17 of treatment

CCn1c(-c2cc(N3CCN(C4CC4)CC3)cnc2[C@H](C)OC)c2c3cc(ccc31)-c1csc(n1)C[C@H](NC(=O)[C@H]1[C@@H]3COC[C@@H]31)C(=O)N1CCC[C@H](N1)C(=O)OCC(C)(C)C2 [RMC-7977]
pERK inhibition in H358 RTK overexpression cells ([1]; GFP, RMC-7977 0.0152 nM): 88.72 and 97.32
pERK in NCI-H358 RTK overexpression cells treated with RMC-7977 ([1]; GFP, RMC-7977 0.0457 nM): 126.84 and 117.32
pERK inhibition in H358 RTK overexpression cells ([1]; GFP, RMC-7977 0.0457 nM): 102.39 and 94.00
pERK in NCI-H358 RTK overexpression cells treated with RMC-7977 ([1]; GFP, RMC-7977 0.41 nM): 51.59 and 78.61
pERK inhibition in H358 RTK overexpression cells ([1]; GFP, RMC-7977 0.41 nM): 66.43 and 65.41
pERK inhibition in MiaPaCa2 RTK fusion overexpression cells treated with RMC-7977 ([1]; GFP, RMC-7977 0.412 nM): 27.42 and 30.00 and 31.02 and 30.72
pERK inhibition in MiaPaCa2 RTK fusion overexpression cells treated with RMC-7977 ([1]; GFP, RMC-7977 1.235 nM): 9.02 and 12.77 and 12.06 and 11.06
pERK in NCI-H358 RTK overexpression cells treated with RMC-7977 ([1]; GFP, RMC-7977 11.11 nM): 4.80
pERK inhibition in H358 RTK overexpression cells ([1]; GFP, RMC-7977 11.11 nM): 7.16 and 4.70
pERK inhibition in MiaPaCa2 RTK fusion overexpression cells treated with RMC-7977 ([1]; GFP, RMC-7977 11.111 nM): 3.33 and 3.53 and 3.95 and 3.59
pERK in NCI-H358 RTK overexpression cells treated with RMC-7977 ([1]; GFP, RMC-7977 33.33 nM): 2.56 and 2.82
pERK inhibition in H358 RTK overexpression cells ([1]; GFP, RMC-7977 33.33 nM): 3.17 and 2.48
pERK inhibition in MiaPaCa2 RTK fusion overexpression cells treated with RMC-7977 ([1]; GFP, RMC-7977 33.333 nM): 3.43 and 3.24 and 2.97 and 2.93
pERK in NCI-H358 RTK overexpression cells treated with RMC-7977 ([1]; GFP, RMC-7977 100.00 nM): 2.07 and 1.93
pERK inhibition in H358 RTK overexpression cells ([1]; GFP, RMC-7977 100.00 nM): 2.60 and 2.58
pERK inhibition in MiaPaCa2 RTK fusion overexpression cells treated with RMC-7977 ([1]; GFP, RMC-7977 100.000 nM): 3.01 and 2.87 and 2.65 and 2.84
pERK in NCI-H358 RTK overexpression cells treated with RMC-7977 ([1]; GFP, RMC-7977 300.00 nM): 2.17 and 2.42
pERK inhibition in H358 RTK overexpression cells ([1]; GFP, RMC-7977 300.00 nM): 2.46 and 2.59
pERK in NCI-H358 RTK overexpression cells treated with RMC-7977 ([1]; HER2, RMC-7977 0.0152 nM): 111.00 and 102.34
pERK inhibition in H358 RTK overexpression cells ([1]; HER2, RMC-7977 0.0152 nM): 107.19 and 89.20
pERK in NCI-H358 RTK overexpression cells treated with RMC-7977 ([1]; HER2, RMC-7977 0.0457 nM): 106.57 and 84.47
pERK inhibition in H358 RTK overexpression cells ([1]; HER2, RMC-7977 0.0457 nM): 86.86 and 85.86
pERK in NCI-H358 RTK overexpression cells treated with RMC-7977 ([1]; HER2, RMC-7977 0.41 nM): 72.44 and 63.75
pERK inhibition in H358 RTK overexpression cells ([1]; HER2, RMC-7977 0.41 nM): 63.34 and 59.01
pERK in NCI-H358 RTK overexpression cells treated with RMC-7977 ([1]; HER2, RMC-7977 11.11 nM): 2.66
pERK inhibition in H358 RTK overexpression cells ([1]; HER2, RMC-7977 11.11 nM): 6.01 and 6.18
pERK in NCI-H358 RTK overexpression cells treated with RMC-7977 ([1]; HER2, RMC-7977 33.33 nM): 1.70 and 1.64
pERK inhibition in H358 RTK overexpression cells ([1]; HER2, RMC-7977 33.33 nM): 5.40 and 5.32
pERK in NCI-H358 RTK overexpression cells treated with RMC-7977 ([1]; HER2, RMC-7977 100.00 nM): 1.42 and 1.69
pERK in NCI-H358 RTK overexpression cells treated with RMC-7977 ([1]; HER2, RMC-7977 300.00 nM): 2.02 and 1.78
pERK in NCI-H358 RTK overexpression cells treated with RMC-7977 ([1]; RET M918T, RMC-7977 0.0152 nM): 93.23 and 141.77
pERK inhibition in H358 RTK overexpression cells ([1]; RET M918T, RMC-7977 0.0152 nM): 96.21 and 105.26
pERK in NCI-H358 RTK overexpression cells treated with RMC-7977 ([1]; RET M918T, RMC-7977 0.0457 nM): 91.92 and 151.65
pERK inhibition in H358 RTK overexpression cells ([1]; RET M918T, RMC-7977 0.0457 nM): 91.15 and 96.00
pERK in NCI-H358 RTK overexpression cells treated with RMC-7977 ([1]; RET M918T, RMC-7977 0.41 nM): 60.67 and 71.79
pERK inhibition in H358 RTK overexpression cells ([1]; RET M918T, RMC-7977 0.41 nM): 61.29 and 64.34
pERK inhibition in H358 RTK overexpression cells ([1]; RET M918T, RMC-7977 3.70 nM): 20.58 and 17.35
pERK in NCI-H358 RTK overexpression cells treated with RMC-7977 ([1]; RET M918T, RMC-7977 11.11 nM): 4.81 and 4.27
pERK inhibition in H358 RTK overexpression cells ([1]; RET M918T, RMC-7977 11.11 nM): 7.08 and 6.42
pERK in NCI-H358 RTK overexpression cells treated with RMC-7977 ([1]; RET M918T, RMC-7977 33.33 nM): 2.17 and 2.02
pERK inhibition in H358 RTK overexpression cells ([1]; RET M918T, RMC-7977 33.33 nM): 3.13 and 3.07
pERK in NCI-H358 RTK overexpression cells treated with RMC-7977 ([1]; RET M918T, RMC-7977 100.00 nM): 1.44 and 1.22
pERK inhibition in H358 RTK overexpression cells ([1]; RET M918T, RMC-7977 100.00 nM): 1.99 and 2.21
pERK in NCI-H358 RTK overexpression cells treated with RMC-7977 ([1]; RET M918T, RMC-7977 300.00 nM): 1.32
pERK inhibition in H358 RTK overexpression cells ([1]; RET M918T, RMC-7977 300.00 nM): 2.03 and 1.88
LC/MS bioanalysis of cells treated with RMC-7977 ([2]; AsPC-1, RMC-7977 10 nM): 161.5 and 241.3 and 143.0
LC/MS bioanalysis of cells treated with RMC-7977 ([2]; AsPC-1, RMC-7977 100 nM): 76.8 and 68.8 and 89.6
LC/MS bioanalysis of cells treated with RMC-7977 ([2]; AsPC-1, RMC-7977 1000 nM): 50.6 and 44.9
inhibition of tumour growth [3]: 90%
